Measurements taken from PubChem BioAssay AID256 (DTP/NCI, 2004).
Inconclusive results and toxic doses are left out. How the source made its calls: active means survival T/C of 150% or more; inactive means T/C below 125% in these data.

Test system: CD2F1 mice, L1210 leukemia ip, survival T/C
Experiment: NCI In Vivo Anticancer Drug Screen. Data for tumor model L1210 Leukemia (intraperitoneal) in CD2F1 (CDF1) mice
Details: higher = longer survival
In short: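 Implant tumor; dose compound or vehicle; measure endpoint in both groups; report treated divided by control.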

[1] = endpoint: mean survival time, dose: 100.0 mg/kg/injection, schedule: Q04DX003 (ip), vehicle: saline with Tween-80
[2] = endpoint: mean survival time, dose: 200.0 mg/kg/injection, schedule: Q04DX003 (ip), vehicle: saline with Tween-80
[3] = endpoint: mean survival time, dose: 400.0 mg/kg/injection, schedule: Q04DX003 (ip), vehicle: saline with Tween-80

Measured: T/C

O=S(=O)(O)O.[NH-]CC(=O)O.[NH-]CC(=O)O.[NH-]CC(=O)O.[NH-]CC(=O)O.[Pt+2].[Pt+2]
inactive: endpoint: mean survival time, dose: 3.13 mg/kg/injection, schedule: Q04DX003 (ip), vehicle: distilled water + Tween-80 101 % of control | endpoint: mean survival time, dose: 6.25 mg/kg/injection, schedule: Q04DX003 (ip), vehicle: distilled water + Tween-80 104 % of control | endpoint: mean survival time, dose: 12.5 mg/kg/injection, schedule: Q04DX003 (ip), vehicle: distilled water + Tween-80 97 % of control | endpoint: mean survival time, dose: 25.0 mg/kg/injection, schedule: Q04DX003 (ip), vehicle: distilled water + Tween-80 112 % of control | endpoint: mean survival time, dose: 50.0 mg/kg/injection, schedule: Q04DX003 (ip), vehicle: distilled water + Tween-80 98 % of control

Cc1ccc2c(c1)N(CCCN(C)C)c1ccccc1S2
inactive: endpoint: mean survival time, dose: 22.0 mg/kg/injection, schedule: Q04DX003 (ip), vehicle: saline 105 % of control | endpoint: mean survival time, dose: 33.0 mg/kg/injection, schedule: Q04DX003 (ip), vehicle: saline 97 % of control | endpoint: mean survival time, dose: 50.0 mg/kg/injection, schedule: Q04DX003 (ip), vehicle: saline 105 % of control | endpoint: mean survival time, dose: 75.0 mg/kg/injection, schedule: Q04DX003 (ip), vehicle: saline 103 % of control

CC(C)(Cc1ccc([N+](=O)[O-])cc1)[N+](=O)[O-]
inactive: endpoint: mean survival time, dose: 75.0 mg/kg/injection, schedule: Q01DX001 (ip), vehicle: saline 98 % of control | endpoint: mean survival time, dose: 150.0 mg/kg/injection, schedule: Q01DX001 (ip), vehicle: saline 102 % of control

O=NN(Cc1cccnc1)Cc1cccnc1
inactive: endpoint: mean survival time, dose: 75.0 mg/kg/injection, schedule: Q01DX001 (ip), vehicle: water 102 % of control | endpoint: mean survival time, dose: 150.0 mg/kg/injection, schedule: Q01DX001 (ip), vehicle: water 102 % of control

CC(=O)O[C@H]1CC[C@@]2(C)C(=CC[C@H]3[C@@H]4CC[C@H](O)[C@@]4(C)CC[C@@H]32)C1
inactive: endpoint: mean survival time, dose: 100.0 mg/kg/injection, schedule: Q01DX009 (ip), vehicle: Klucel (hydroxypropylcellulose) (HPC) 97 % of control | endpoint: mean survival time, dose: 200.0 mg/kg/injection, schedule: Q01DX009 (ip), vehicle: Klucel (hydroxypropylcellulose) (HPC) 90 % of control | endpoint: mean survival time, dose: 400.0 mg/kg/injection, schedule: Q01DX009 (ip), vehicle: Klucel (hydroxypropylcellulose) (HPC) 95 % of control

O=c1n(-c2ccccc2)c(=O)n2n1C1C=CC2C2CC2/C=C\1 (stereo not drawn)
inactive: endpoint: median survival time, dose: 50.0 mg/kg/injection, schedule: Q04DX002 (ip), vehicle: saline with Tween-80 112 % of control | endpoint: median survival time, dose: 100.0 mg/kg/injection, schedule: Q04DX002 (ip), vehicle: saline with Tween-80 112 % of control | endpoint: median survival time, dose: 200.0 mg/kg/injection, schedule: Q04DX002 (ip), vehicle: saline with Tween-80 87 % of control

CCCC(CC(=O)O)(C(=O)O)c1ccccc1 (stereo not drawn)
inactive: endpoint: mean survival time, dose: 100.0 mg/kg/injection, schedule: Q01DX009 (ip), vehicle: other 108 % of control | endpoint: mean survival time, dose: 100.0 mg/kg/injection, schedule: Q04DX003 (ip), vehicle: other 93 % of control | endpoint: mean survival time, dose: 200.0 mg/kg/injection, schedule: Q01DX009 (ip), vehicle: other 91 % of control | endpoint: mean survival time, dose: 200.0 mg/kg/injection, schedule: Q04DX003 (ip), vehicle: other 97 % of control | endpoint: mean survival time, dose: 400.0 mg/kg/injection, schedule: Q01DX009 (ip), vehicle: other 91 % of control | endpoint: mean survival time, dose: 400.0 mg/kg/injection, schedule: Q04DX003 (ip), vehicle: other 98 % of control

OC(c1nc2ccccc2[nH]1)C(O)c1nc2ccccc2[nH]1 (stereo not drawn)
inactive: [1] 101 % of control | [2] 102 % of control | [3] 96 % of control

O=S(=O)(Nc1ccc(CCc2ccc(NS(=O)(=O)c3ccccc3)cc2)cc1)c1ccccc1
inactive: endpoint: mean survival time, dose: 100.0 mg/kg/injection, schedule: Q01DX001 (ip), vehicle: saline with Tween-80 95 % of control | endpoint: mean survival time, dose: 200.0 mg/kg/injection, schedule: Q01DX001 (ip), vehicle: saline with Tween-80 90 % of control | endpoint: mean survival time, dose: 400.0 mg/kg/injection, schedule: Q01DX001 (ip), vehicle: saline with Tween-80 92 % of control

Cc1c([N+](=O)[O-])cc2c(c1[N+](=O)[O-])C(C)(C)CC2(C)C
inactive: endpoint: mean survival time, dose: 100.0 mg/kg/injection, schedule: Q01DX009 (ip), vehicle: saline with Tween-80 100 % of control | [1] 96 % of control | endpoint: mean survival time, dose: 200.0 mg/kg/injection, schedule: Q01DX009 (ip), vehicle: saline with Tween-80 98 % of control | [2] 105 % of control | endpoint: mean survival time, dose: 400.0 mg/kg/injection, schedule: Q01DX009 (ip), vehicle: saline with Tween-80 96 % of control | [3] 94 % of control

NC(=O)Cc1c(Cl)n(-c2ccccc2)c2ccccc12
inactive: endpoint: mean survival time, dose: 50.0 mg/kg/injection, schedule: Q04DX003 (ip), vehicle: Klucel (hydroxypropylcellulose) (HPC) 95 % of control | endpoint: mean survival time, dose: 100.0 mg/kg/injection, schedule: Q04DX003 (ip), vehicle: Klucel (hydroxypropylcellulose) (HPC) 102 % of control | endpoint: mean survival time, dose: 200.0 mg/kg/injection, schedule: Q04DX003 (ip), vehicle: Klucel (hydroxypropylcellulose) (HPC) 95 % of control

N#Cc1ccc(C(=O)CC(O)(C(F)(F)F)C(F)(F)F)cc1
inactive: [1] 101 % of control | [2] 101 % of control | [3] 98 % of control
